Results published in patent US20110190235A1, “BORON-CONTAINING SMALL MOLECULES AS ANTIPROTOZOAL AGENTS” (Anacor Pharmaceuticals, Inc., priority 2009, published 2011).
Converted amounts (≈) assume the structure as drawn. Like-named read-outs stand apart in the source and are kept apart here. One block for each compound: values may come before it.

Legend:
[1] = Pharmacokinetic studies in mice (plasma, brain); format: in vivo; conditions: for CL/F / half-life / Cmax / AUC(0-inf) / AUC(0-t): male, CD-1, mouse; for CL/F: read-out: Oral Clearance Cl/F (converted); for half-life: read-out: t½ (converted); for AUC(0-inf): read-out: Exposure/trapezoid AUC0-inf
Description: Male CD-1 mice weighing approximately 25 g received the test article (E19 or 82 or E14 or 69) by either intravenous (IV), oral gavage (OG) or intra-peritoneal (IP) routes. Animals in IV group (6-10 animals, 1-2 per time point) received a single bolus injection of approximately 2 mg/kg of the test article. Animals receiving […], or as 4 repeat doses ([…], 1-2 per time point).
All doses were administered as clear colorless solutions in either: 50% (v/v) PEG400:20% (v/v) ethanol:30% (v/v) carboxymethylcellulose (0.5% w/v in sterile water for injection, WFI), or as in situ sodium salts in 5% (m/v) dextrose:2% (v/v) ethanol in DWI. All dose solutions were delivered at 4 mL/kg. Animals were fasted for at least 4 hours before dosing, and for 2 hours after dosing.
Blood samples and brain tissue were sampled from 1 or 2 animals/timepoint/group immediately before dosing and approximately 0.17, 0.5, 1, 2, 3, 4, 6, 8, 12, 18 and 24 hr after dosing for full pharmacokinetic and tissue analysis, or at 0.5, 2 and 4 hours post dosing to assess early-phase CNS disposition.
Bioanalysis for test article in whole blood, plasma or brain tissue was performed by HPLC with tandem mass spectrometry (LC-MSMS). Whole blood and plasma samples were treated with 3 volumes of either acetonitrile or methanol to precipitate plasma proteins. Treated samples were centrifuged and supernatants removed for analysis. Brain tissues were weighed and homogenized mechanically in the presence of 1 volume of phosphate-buffered saline (PBS). The resulting tissue suspensions were then diluted with a further volume of PBS, and then treated in the same manner as whole blood or plasma.
Extracted samples were assayed for test article by means of LC-MSMS employing reversed-phase chromatography coupled to a triple quadrupole mass spectrometer employing electrospray ionization in the positive ion mode. The analytical column was a Phenomenex Luna 3μ C8 50×2 mm, with an online sample purification step performed on a Phenomenex Synergi 4μ Polar RP 50×2 mm column.
Test articles were eluted using a binary mobile phase gradient comprising 5 mM Ammonium Acetate: 0.1% formic acid in either MeOH or H2O.
Non-compartmental analysis of plasma test article concentration versus time was performed in Microsoft Excel to generate pharmacokinetic parameters including: area under the curve (AUC), clearance (as Cl or Cl/F), volume of distribution (Vdss), half-life (t½), and bioavailability (F).

[2] = Pharmacokinetic studies in rats (plasma, brain, CSF); format: in vivo; conditions: for half-life: read-out: t½ (converted); for Cmax / AUC(0-t) / AUC(0-inf): normalized to 25 mg/kg; for AUC(0-t): read-out: Exposure/trapezoid AUC0-18; for AUC(0-inf): read-out: Exposure/trapezoid AUC0-inf
Description: Male Sprague Dawley rats weighing approximately 200 g received test article (E19 or 82) as a single oral gavage (OG) dose of approximately 25 mg/kg (approximately 10 animals per group).
All doses were administered as clear colorless solutions as in situ sodium salts in 5% (m/v) dextrose:2% (v/v) ethanol in DWI. All dose solutions were delivered at 2 mL/kg. Animals were fasted for at least 4 hours before dosing, and for 2 hours after dosing.
Blood and CSF samples and brain tissue were sampled from 1 animal/timepoint/group immediately before dosing and approximately 0.5, 1, 2, 3, 4, 6, 8, 12, 18 and 24 hr after dosing for full pharmacokinetic (plasma and CSF) and tissue (Brain) analysis.

[3] = test system: bloodstream-form trypanosome T. brucei brucei 427 strain; assay: Trypanosoma brucei brucei high-throughput in vitro drug sensitivity assay (resazurin); format: cell-based; conditions: for Selectivity Index (L929 IC50 / T. b. brucei IC50): T. b. brucei vs L929; for IC50: Trypanosoma brucei, 72 hrs incubation
[4] = Kinetic solubility by nephelometric (light scattering) method; format: physicochemical; conditions: phosphate buffered saline, aqueous buffer, kinetic from dmso stock, PBS pH 7.4
Description: The kinetic solubilities of compounds were estimated using a nephelometric (light scattering) method. Briefly, compounds were serially diluted in DMSO, followed by dilution in PBS pH 7.4. After incubation, the amount of light scattered by a compound at each concentration was measured. […] At concentrations above the solubility limit, the compound precipitates and the precipitant in the well scatters the light, generating a signal. Higher levels of precipitant in a well scatter more light and produce a stronger signal.
A stock solution of compound (25 mM in DMSO) was prepared, and was serially diluted in DMSO in two-fold increments in a row of a 96 well plate to a lowest concentration of 24 μM. A duplicate plate was prepared by transfer of half of the volume of each well to a new plate. Each well containing DMSO solution of the test compound was then diluted further (1:100) with phosphate buffered saline (pH 7.4) to provide aqueous solutions of compound at the following final concentrations: 250, 125, 62.5, 31.3, 15.6, 7.8, 3.9, 2.0, 1.0, 0.5 and 0.2 μM. All liquid handling stages were performed on a Beckman Coulter Biomek NX Laboratory Automation Workstation. Each compound was diluted and tested in duplicate, providing four separate wells at each test concentration.
The test solutions of compound were incubated at room temperature for 90 minutes and then analyzed using a Thermoskan Ascent nephelometric plate reader. The nephelometer protocol included two steps: first, the plate was shaken for 60 seconds at 1200 rpm, then each well of the plate was read in succession with an 800 ms settling delay between measurements. The total measurement time for a single plate was less than 4 minutes.
The four values (in nephelometric units) obtained for each compound at each concentration were averaged and plotted on a log scale versus concentration.

[5] = L929 cytotoxicity evaluation (resazurin); format: cell-based; conditions: mouse, L929 mouse fibroblast cells; 72 hrs incubation; read-out: Cytotox L-929 IC50
Summary of the method: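 Mouse L929 fibroblasts (1×10^4/mL seeding, attached overnight) were treated 72 h at 37 °C, 5% CO2 with serially diluted compounds in DMSO in D-MEM/10% FBS. Viability read by resazurin fluorescence after 3–4 h (ex 544/em 590 nm); IC50 from sigmoidal fits of single data points.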

[6] = 8 mg/kg, brain, oral, mice (Table 3a)
[7] = 8 mg/kg, brain, oral, mice, normalized to 25 mg/kg (Table 3a)
[8] = 8 mg/kg, plasma, oral, mice (Table 3a)
[9] = 8 mg/kg, plasma, oral, mice, normalized to 25 mg/kg (Table 3a)
[10] = male, Sprague Dawley, rat, CSF, oral, rats
[11] = male, Sprague Dawley, rat, brain, oral, rats
[12] = male, Sprague Dawley, rat, plasma, oral, rats

CL/F [1, 6]: 8.02 L/h/kg | half-life [1, 6]: 1.6 h | Cmax [1, 7]: 2.44 µg/mL | AUC(0-inf) [1, 7]: 3.15 µg·h/mL | AUC(0-t) ([1]; 8 mg/kg, brain, oral, mice, normalized to 25 mg/kg (Table 3a), read-out: Exposure/trapezoid AUC0-last): 3.12 µg·h/mL | CL/F [1, 8]: 1.73 L/h/kg | half-life [1, 8]: 2.97 h | Cmax [1, 9]: 3.59 µg/mL | AUC(0-inf) [1, 9]: 15.2 µg·h/mL | AUC(0-t) ([1]; 8 mg/kg, plasma, oral, mice, normalized to 25 mg/kg (Table 3a), read-out: Exposure/trapezoid AUC0-last): 14.4 µg·h/mL
SMILES: O=C(Nc1ccc2c(c1)B(O)OC2)c1ccc(F)cc1Cl [E14, 2-Chloro-4-fluoro-N-(1-hydroxy-1,3-dihydro-benzo[c][1,2]oxaborol-6-yl)-benzamide]

half-life ([1]; 25 mg/kg, brain, oral, mice): 2.3 h | CL/F ([1]; 25 mg/kg, plasma, oral, mice): 0.23 L/h/kg | half-life ([1]; 25 mg/kg, plasma, oral, mice): 17.1 h | Cmax ([1]; brain, oral, mice, normalized to 25 mg/kg (nominal 25 mg/kg)): 6.1 µg/mL | AUC(0-t) ([1]; brain, oral, mice, normalized to 25 mg/kg, read-out: Exposure/trapezoid AUC0-18): 13.1 µg·h/mL | AUC(0-inf) ([1]; brain, oral, mice, normalized to 25 mg/kg): 13.2 µg·h/mL | Cmax ([1]; plasma, oral, mice, normalized to 25 mg/kg (nominal 25 mg/kg)): 10 µg/mL | AUC(0-t) ([1]; plasma, oral, mice, normalized to 25 mg/kg, read-out: Exposure/trapezoid AUC0-18): 70.6 µg·h/mL | AUC(0-inf) ([1]; plasma, oral, mice, normalized to 25 mg/kg): 109 µg·h/mL | dose proportionality of brain exposure ([1]; oral delivery to mice): generally dose-proportional increases | F (% of IV) ([1]; plasma, oral, mice): 26% | half-life ([2]; male, Sprague Dawley, rat, 25 mg/kg, CSF, oral, rats): 3.1 h | half-life ([2]; male, Sprague Dawley, rat, 25 mg/kg, brain, oral, rats): 2.6 h | CL/F ([2]; male, Sprague Dawley, rat, 25 mg/kg, plasma, oral, rats, read-out: Oral Clearance Cl/F (converted)): 0.261 L/h/kg | half-life ([2]; male, Sprague Dawley, rat, 25 mg/kg, plasma, oral, rats): 8.1 h | Cmax [2, 10]: 1.2 µg/mL | AUC(0-t) [2, 10]: 3.8 µg·h/mL | AUC(0-inf) [2, 10]: 3.9 µg·h/mL | Cmax [2, 11]: 2.5 µg/mL | AUC(0-t) [2, 11]: 12.7 µg·h/mL | AUC(0-inf) [2, 11]: 12.7 µg·h/mL | Cmax [2, 12]: 12.3 µg/mL | AUC(0-t) [2, 12]: 98.3 µg·h/mL | AUC(0-inf) [2, 12]: 102 µg·h/mL | time levels in brain and CSF are above the in vitro MIC ([2]; nominal single oral dose of 25 mg/kg to rats): 4 h | F (% of IV) ([2]; plasma, oral, rats): 123.0%
SMILES: O=C(Nc1ccc2c(c1)B(O)OC2)c1ccc(F)cc1C(F)(F)F [E19, 4-Fluoro-N-(1-hydroxy-1,3-dihydro-benzo[c][1,2]oxaborol-6-yl)-2-trifluoromethyl-benzamide]
brain concentrations relative to the MIC ([1]; mouse and rat, brain (and CSF)): decrease rapidly to levels below the MIC within a few hours after dosing | dose proportionality of plasma exposure ([1]; oral delivery to mice): greater than proportional at doses above 20 mg/kg | plasma PK when administered to rodents ([1]; rodents, plasma): good exposure (AUC and Cmax), promising bioavailability, prolonged half-life, and low clearance | dose proportionality of exposure in plasma, brain and CSF ([2]; rats): increase in a generally proportional manner with dose

SMILES: Cc1ccc(C(=O)Nc2ccc3c(c2)B(O)OC3C)cc1 (stereo not shown) [compound 7, N-(1-Hydroxy-3-methyl-1,3-dihydro-benzo[c][1,2]oxaborol-6-yl)-4-methyl-benzamide]
Selectivity Index (L929 IC50 / T. b. brucei IC50) [3]: 137 | IC50 ([3]; read-out: T. b. brucei IC50): 0.146 µM | IC50 ([3]; read-out: T.b. brucei IC50): 0.041 mg/L | solubility at 90 min [4]: 100 µM (≈ 28.1 µg/mL) | IC50 at 72 h [5]: 5.61 mg/L (≈ 20 µM)

SMILES: CC1OB(O)c2cc(NC(=O)c3ccccc3F)ccc21 (stereo not shown) [compound 8, 2-Fluoro-N-(1-hydroxy-3-methyl-1,3-dihydro-benzo[c][1,2]oxaborol-6-yl)-benzamide]
Selectivity Index (L929 IC50 / T. b. brucei IC50) [3]: 84 | IC50 ([3]; read-out: T. b. brucei IC50): 0.246 µM | IC50 ([3]; read-out: T.b. brucei IC50): 0.07 mg/L | solubility at 90 min [4]: 50 µM (≈ 14.3 µg/mL) | IC50 at 72 h [5]: 5.86 mg/L (≈ 20.6 µM)

SMILES: CC1OB(O)c2cc(NC(=O)c3ccc(Cl)cc3)ccc21 (stereo not shown) [compound 9, 4-Chloro-N-(1-hydroxy-3-methyl-1,3-dihydro-benzo[c][1,2]oxaborol-6-yl)-benzamide]
Selectivity Index (L929 IC50 / T. b. brucei IC50) [3]: >208 | IC50 ([3]; read-out: T. b. brucei IC50): 0.159 µM | IC50 ([3]; read-out: T.b. brucei IC50): 0.048 mg/L | solubility at 90 min [4]: 25 µM (≈ 7.54 µg/mL) | IC50 at 72 h [5]: > 10 mg/L

SMILES: CC1OB(O)c2cc(NC(=O)c3ccc(F)cc3F)ccc21 (stereo not shown) [compound 12, 2,4-Difluoro-N-(1-hydroxy-3-methyl-1,3-dihydro-benzo[c][1,2]oxaborol-6-yl)-benzamide]
Selectivity Index (L929 IC50 / T. b. brucei IC50) [3]: >123 | IC50 ([3]; read-out: T. b. brucei IC50): 0.267 µM | IC50 ([3]; read-out: T.b. brucei IC50): 0.081 mg/L | solubility at 90 min [4]: 100 µM (≈ 30.3 µg/mL) | IC50 at 72 h [5]: > 10 mg/L

SMILES: CC1OB(O)c2cc(NC(=O)c3ccc(F)cc3Cl)ccc21 (stereo not shown) [compound 13, 2-Chloro-4-fluoro-N-(1-hydroxy-3-methyl-1,3-dihydro-benzo[c][1,2]oxaborol-6-yl)-benzamide]
Selectivity Index (L929 IC50 / T. b. brucei IC50) [3]: 47 | IC50 ([3]; read-out: T. b. brucei IC50): 0.135 µM | IC50 ([3]; read-out: T.b. brucei IC50): 0.043 mg/L | solubility at 90 min [4]: > 200 µM | IC50 at 72 h [5]: 2 mg/L (≈ 6.26 µM)

SMILES: CC1OB(O)c2cc(NC(=O)c3ccccc3Br)ccc21 (stereo not shown) [compound 14, 2-Bromo-N-(1-hydroxy-3-methyl-1,3-dihydro-benzo[c][1,2]oxaborol-6-yl)-benzamide]
Selectivity Index (L929 IC50 / T. b. brucei IC50) [3]: 39 | IC50 ([3]; read-out: T. b. brucei IC50): 0.124 µM | IC50 ([3]; read-out: T.b. brucei IC50): 0.043 mg/L | solubility at 90 min [4]: 100 µM (≈ 34.6 µg/mL) | IC50 at 72 h [5]: 1.67 mg/L (≈ 4.83 µM)
